Legend:
[1] = system: BAF3 cells expressing MER; assay: BAF3-MER cell proliferation assay (CellTiter-Glo); assay type: cell-based; conditions: Mus musculus, 48 hours, 2% FBS
From the text: (§1) To evaluate the cellular potency and selectivity within the TAM receptor family, mouse BAF3 cell lines with stable expression of AXL, MER, or TYRO3 were generated.
(§2) The cytoplasmic domain of AXL, MER, or TYRO3 fused with dimerization sequence and HA tag was cloned into a pMSCV (murine stem cell virus) vector with a puromycin-resistance marker to generate three constructs individually by electroporation into BAF3 cells. Single clones that were IL-3-independent and puromycin-resistant were selected and characterized. To evaluate effects on BAF3 cell proliferation, 1000 cells/well of BAF3, BAF3-AXL, BAF3 MER, or BAF3-TYRO3 cells were treated in the presence or absence of Compound 1 at various concentrations (10 concentration points with a three-fold dilution factor from the highest concentration of 10 μM) diluted in RPMI-1640 with 2% FBS for 48 hours in a 384-well plate. Cell viability was measured by ATP assay (CellTiter-Glo Assay, Promega, Madison, Wis.) according to the manufacturer's procedure. The data were converted to percent inhibition relative to DMSO control, and IC50 curves were fitted using GraphPad Prism software.

AXL = target: T1, AXL (Homo sapiens, UniProt P30530); assay: TR-FRET kinase assay, phospho-AXL; assay type: biochemical; conditions: average from multiple lots, n=18; read-out: IC50 against AXL
T1 construct: recombinant phosphorylated forms of the kinase domains for AXL, MER and TYRO3; purchased ThermoFisher Scientific PV4275
T1 sequence (P30530 536-807 limits assumed): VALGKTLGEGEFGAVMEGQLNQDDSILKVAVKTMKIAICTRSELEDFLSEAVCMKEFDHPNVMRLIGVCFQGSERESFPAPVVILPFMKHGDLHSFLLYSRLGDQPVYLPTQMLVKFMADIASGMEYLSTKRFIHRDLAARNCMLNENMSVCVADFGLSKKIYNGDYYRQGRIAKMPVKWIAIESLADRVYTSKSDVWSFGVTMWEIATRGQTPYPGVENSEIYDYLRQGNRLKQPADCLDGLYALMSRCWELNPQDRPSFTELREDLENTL
Method: The biochemical potency of Compound 1 to inhibit the enzymatic activity of TAM family members was investigated by TR-FRET assays using recombinant phosphorylated forms of the kinase domains for AXL, MER and TYRO3.
Phospho-AXL (pAXL), cMER and Tyro3 kinase activities were measured by time-resolved fluorescence energy transfer (TR-FRET) assays. Autophosphorylation of AXL was carried out before the kinase assay by incubating the recombinant AXL protein (ThermoFisher Scientific; #PV4275) in buffer containing 50 mM Tris, pH 7.5, 0.2 mg/mL AXL, 5 mM ATP, 20 mM MgCl2 and 2 mM dithiothreitol (DTT) at room temperature for 1 hour. The kinase assay buffer contained 50 mM HEPES, pH 7.5, 10 mM MgCl2, 1 mM EGTA, 0.01% NP-40 and 2 mM DTT. Enzyme solutions of 0.69 nM phospho-AXL, or 0.088 nM cMER (Carna Biosciences, Kobe, Japan; #08-108) or 0.137 nM TYRO3 (Life Technologies, PR7480A) were prepared in assay buffer. […] The plate was incubated for 30 minutes at room temperature, and homogenous time resolved fluorescence (HTRF) signal was measured on a PheraStar FS plate reader (BMG Labtech, Ortenberg, Germany). Percent inhibition was calculated for each concentration, and half maximal inhibitory concentration (IC50) value was generated from curve fitting with GraphPad Prism software (San Diego, Calif.).

parental BAF3 cells = assay: Parental BAF3 cell proliferation assay (CellTiter-Glo); assay type: cell-based; conditions: Mus musculus, 48 hours, 2% FBS
From the text: as §1, §2

[2] = system: TYRO3-expressing BAF3 cells; assay: BAF3-TYRO3 cell proliferation assay (CellTiter-Glo); assay type: cell-based, mouse
From the text: as §1, §2

CC(C)C(=O)N1CCC(c2cc(-c3ccc(NC(=O)c4cn(C(C)C)c(=O)n(-c5ccccn5)c4=O)cc3)c3c(N)ncnn23)CC1 [Compound 1, N-(4-(4-Amino-7-(1-isobutyrylpiperidin-4-yl)pyrrolo[1,2-f][1,2,4]triazin-5-yl)phenyl)-1-isopropyl-2,4-dioxo-3-(pyridin-2-yl)-1,2,3,4-tetrahydropyrimidine-5-carboxamide]
GI50 [1]: 14 ± 4.9 nM
IC50 (AXL): 0.61 ± 0.31 nM
IC50 (parental BAF3 cells): > 4000 nM
selectivity against TYRO3 (cellular) ([2]; BAF3 transfectants): > 30 fold
IC50 ([2]; Mus musculus, BaF3, 48 hours, 2% FBS, read-out: IC50, growth of TYRO3-expressing BAF3 cells): 498 ± 161 nM
